Measurements taken from patent publication EP0908457B1, “3-(1,2-benzisothiazol- and isoxazol-5-Y1)-2,4(1H,3H)-pyrimidinedione or thione and 3-(1,2-benzisothiazol- and isoxazol-5-y1)-4(3H)-pyrimidinone or thione herbicidal agents” (BASF AKTIENGESELLSCHAFT, priority 1997, dated 1999).

What was measured:
[1] = tested on: Oryza sativa, (L.) Tebonnet; assay: Rice tolerance to post-transplant applications under flooded paddy conditions (Example 187), ORYSAT (Rice, Tebonnet); details: rated three to four weeks after treatment; note: meaning of each grade not given here
[2] = tested on: Monochoria vaginalis, Presl.; assay: Preemergence weed control under flooded paddy conditions, MOOVA (Monochoria); type: in vivo; details: preemergence weeds, flooded paddy, rated three to four weeks after treatment; note: meaning of each grade not given here
Sagittaria pygmaea, L. [3] = assay: Postemergence weed control under flooded paddy conditions, SAGPY (Arrowhead (Pygmaea)); type: in vivo; details: rated three to four weeks after treatment
[4] = tested on: Cyperus serotinus, Rottb.; assay: Postemergence weed control under flooded paddy conditions, CYPSE (Flatsedge); type: in vivo; details: rated three to four weeks after treatment
[5] = tested on: Oryza sativa, (L.) Tebonnet; assay: Rice tolerance to post-transplant applications under flooded paddy conditions (Example 188), ORYSAT (Rice, Tebonnet); details: rated three to four weeks after treatment
Cyperus iria [6] = assay: Postemergence weed control under flooded paddy conditions, CYPIR (Rice Flatsedge); type: in vivo; details: rated three to four weeks after treatment
[7] = tested on: Echinochloa oryzoides (Ard.) Fritsch.; assay: Postemergence weed control under flooded paddy conditions, ECHORC (Watergrass (Calif.)); type: in vivo; details: rated three to four weeks after treatment
Cyperus iria [8] = assay: Preemergence weed control under flooded paddy conditions, CYPIR (Rice Flatsedge); type: in vivo; details: preemergence weeds, flooded paddy, rated three to four weeks after treatment; note: meaning of each grade not given here
Sagittaria pygmaea, L. [9] = assay: Preemergence weed control under flooded paddy conditions, SAGPY (Arrowhead (Pygmaea)); type: in vivo; details: preemergence weeds, flooded paddy, rated three to four weeks after treatment; note: meaning of each grade not given here
[10] = tested on: Monochoria vaginalis, Presl.; assay: Postemergence weed control under flooded paddy conditions, MOOVA (Monochoria); type: in vivo; details: rated three to four weeks after treatment
[11] = tested on: Echinochloa oryzoides (Ard.) Fritsch.; assay: Preemergence weed control under flooded paddy conditions, ECHORC (Watergrass (Calif.)); type: in vivo; details: preemergence weeds, flooded paddy, rated three to four weeks after treatment; note: meaning of each grade not given here
[12] = tested on: Cyperus serotinus, Rottb.; assay: Preemergence weed control under flooded paddy conditions, CYPSE (Flatsedge); type: in vivo; details: preemergence weeds, rated three to four weeks after treatment; note: meaning of each grade not given here

CCOc1cccc(-c2nsc3ccc(-n4c(=O)cc(C(F)(F)F)n(C)c4=O)cc23)c1 [Example 327, 2,4(1H,3H)-Pyrimidinedione, 3-[3-(m-ethoxyphenyl)-1,2-benzisothiazol-5-yl]-1-methyl-6-(trifluoromethyl)-]
2.5: herbicidal effect rating ORYSAT ([1]; Rate 0.0620 kg/ha)
5.5: herbicidal effect rating, SAGPY (Sagittaria pygmaea, L. [9]; Rate 0.0620 kg/ha) | herbicidal effect rating, SAGPY (Sagittaria pygmaea, L. [9]; Rate 0.1250 kg/ha) | herbicidal effect rating, CYPSE ([12]; Rate 0.0620 kg/ha) | herbicidal effect rating, CYPSE ([12]; Rate 0.1250 kg/ha)
1.0: herbicidal effect rating, CYPSE ([12]; Rate 0.0320 kg/ha)
3.5: herbicidal effect rating ORYSAT ([1]; Rate 0.1250 kg/ha)
7.0: herbicidal effect rating, ECHORC ([7]; Rate 0.0620 kg/ha)
0.0: herbicidal effect rating, SAGPY (Sagittaria pygmaea, L. [3]; Rate 0.0320 kg/ha) | herbicidal effect rating, SAGPY (Sagittaria pygmaea, L. [3]; Rate 0.0620 kg/ha) | herbicidal effect rating, CYPSE ([4]; Rate 0.0320 kg/ha) | herbicidal effect rating, CYPSE ([4]; Rate 0.0620 kg/ha) | herbicidal effect rating, CYPSE ([4]; Rate 0.1250 kg/ha)
3.0: herbicidal effect rating ORYSAT ([1]; Rate 0.0320 kg/ha) | herbicidal effect rating, ORYSAT (rice tolerance) ([5]; Rate 0.0620 kg/ha) | herbicidal effect rating, SAGPY (Sagittaria pygmaea, L. [9]; Rate 0.0320 kg/ha)
7.5: herbicidal effect rating, SAGPY (Sagittaria pygmaea, L. [9]; Rate 0.2500 kg/ha)
4.0: herbicidal effect rating ORYSAT ([1]; Rate 0.2500 kg/ha) | herbicidal effect rating, SAGPY (Sagittaria pygmaea, L. [3]; Rate 0.1250 kg/ha) | herbicidal effect rating, SAGPY (Sagittaria pygmaea, L. [3]; Rate 0.2500 kg/ha) | herbicidal effect rating, ORYSAT (rice tolerance) ([5]; Rate 0.2500 kg/ha)
2.0: herbicidal effect rating, CYPSE ([4]; Rate 0.2500 kg/ha) | herbicidal effect rating, ORYSAT (rice tolerance) ([5]; Rate 0.0320 kg/ha)
9.0: herbicidal effect rating, MOOVA ([2]; Rate 0.0320 kg/ha) | herbicidal effect rating, MOOVA ([2]; Rate 0.0620 kg/ha) | herbicidal effect rating, MOOVA ([2]; Rate 0.1250 kg/ha) | herbicidal effect rating, MOOVA ([2]; Rate 0.2500 kg/ha) | herbicidal effect rating, CYPIR (Cyperus iria [6]; Rate 0.0320 kg/ha) | herbicidal effect rating, CYPIR (Cyperus iria [6]; Rate 0.0620 kg/ha) | herbicidal effect rating, CYPIR (Cyperus iria [6]; Rate 0.1250 kg/ha) | herbicidal effect rating, CYPIR (Cyperus iria [6]; Rate 0.2500 kg/ha) | herbicidal effect rating, ECHORC ([7]; Rate 0.0320 kg/ha) | herbicidal effect rating, ECHORC ([7]; Rate 0.1250 kg/ha) | herbicidal effect rating, ECHORC ([7]; Rate 0.2500 kg/ha) | herbicidal effect rating, CYPIR (Cyperus iria [8]; Rate 0.0320 kg/ha) | herbicidal effect rating, CYPIR (Cyperus iria [8]; Rate 0.0620 kg/ha) | herbicidal effect rating, CYPIR (Cyperus iria [8]; Rate 0.1250 kg/ha) | herbicidal effect rating, CYPIR (Cyperus iria [8]; Rate 0.2500 kg/ha) | herbicidal effect rating, MOOVA ([10]; Rate 0.0320 kg/ha) | herbicidal effect rating, MOOVA ([10]; Rate 0.0620 kg/ha) | herbicidal effect rating, MOOVA ([10]; Rate 0.1250 kg/ha) | herbicidal effect rating, MOOVA ([10]; Rate 0.2500 kg/ha) | herbicidal effect rating, ECHORC ([11]; Rate 0.0320 kg/ha) | herbicidal effect rating, ECHORC ([11]; Rate 0.0620 kg/ha) | herbicidal effect rating, ECHORC ([11]; Rate 0.1250 kg/ha) | herbicidal effect rating, ECHORC ([11]; Rate 0.2500 kg/ha) | herbicidal effect rating, CYPSE ([12]; Rate 0.2500 kg/ha)
5.0: herbicidal effect rating, ORYSAT (rice tolerance) ([5]; Rate 0.1250 kg/ha)
